Tests used:
[1] = biological target: T1, thymine DNA glycosylase (TDG) (Homo sapiens, UniProt Q13569); assay: molecular beacon screen with recombinant TDG, confirmed in radioactive DNA glycosylase assay; type: biochemical
[2] = biological target: T1, thymine DNA glycosylase (TDG); assay: radioactive DNA glycosylase assay with purified recombinant TDG; TDG/APE1 molecular beacon assay (dose-dependent); 5caC increase in cells; type: biochemical

T1 sequence (Q13569 whole entry): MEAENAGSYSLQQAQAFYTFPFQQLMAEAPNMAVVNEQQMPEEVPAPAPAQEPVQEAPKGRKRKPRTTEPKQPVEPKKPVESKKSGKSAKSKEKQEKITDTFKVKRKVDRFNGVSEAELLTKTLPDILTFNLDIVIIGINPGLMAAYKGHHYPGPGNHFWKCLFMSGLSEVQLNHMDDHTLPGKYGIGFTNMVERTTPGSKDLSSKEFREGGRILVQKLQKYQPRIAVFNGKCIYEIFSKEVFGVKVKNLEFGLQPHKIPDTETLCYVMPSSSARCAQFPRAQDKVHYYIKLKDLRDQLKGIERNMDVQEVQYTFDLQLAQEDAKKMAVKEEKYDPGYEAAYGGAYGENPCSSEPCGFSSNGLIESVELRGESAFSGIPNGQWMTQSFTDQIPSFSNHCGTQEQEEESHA

Row | Compound | molecular beacon screen with recombinant TDG, confirmed in radioactive DNA glyco [1] | radioactive DNA glycosylase assay with purified recombinant TDG; TDG/APE1 molecu [2]
1 | C=CC1=C(C(=O)O)N2C(=O)[C@@H](NC(=O)/C(=N\OCC(=O)O)c3csc(N)n3)[C@H]2SC1 [cefixime] | including closantel, juglone, and cefixime, were confirmed as TDG inhibitors in a standard, radioactive DNA glycosylase assay | –
2 | Cc1cc(C(C#N)c2ccc(Cl)cc2)c(Cl)cc1NC(=O)c1cc(I)cc(I)c1O (stereo not drawn) [closantel] | – | including closantel, juglone, and cefixime, were confirmed as TDG inhibitors in a standard, radioactive DNA glycosylase assay
3 | O=C1C=CC(=O)c2c(O)cccc21 [juglone] | – | including closantel, juglone, and cefixime, were confirmed as TDG inhibitors in a standard, radioactive DNA glycosylase assay

Reference: paper PMC6563616, “Thymine DNA glycosylase as a novel target for melanoma” (Oncogene, 2019)
